The NIST ThermoML archive (doi:10.1016/j.jct.2019.03.023)

Experiment: molar heat capacity at constant volume
Details: Fluid (supercritical or subcritical phases), Vacuum adiabatic calorimetry

CC(C)O [propan-2-ol]
Details	molar heat capacity at constant volume [J/K/mol]
501.94 K, Mass density=343.1 kg/m3	317.72
502.03 K, Mass density=266.3 kg/m3	345.37
502.04 K, Mass density=343.1 kg/m3	315.2
502.13 K, Mass density=266.3 kg/m3	347.59
502.13 K, Mass density=343.1 kg/m3	309.67
502.22 K, Mass density=266.3 kg/m3	350.23
502.22 K, Mass density=343.1 kg/m3	314.54
502.31 K, Mass density=266.3 kg/m3	348.13
502.32 K, Mass density=343.1 kg/m3	312.25
502.41 K, Mass density=266.3 kg/m3	351.2
502.41 K, Mass density=343.1 kg/m3	317.66
502.5 K, Mass density=266.3 kg/m3	350.29
502.5 K, Mass density=343.1 kg/m3	312.07
502.6 K, Mass density=266.3 kg/m3	350.29
502.6 K, Mass density=343.1 kg/m3	310.39
503.92 K, Mass density=329.2 kg/m3	322.05
504.02 K, Mass density=329.2 kg/m3	325.72
504.11 K, Mass density=329.2 kg/m3	323.31
504.3 K, Mass density=329.2 kg/m3	318.86
504.37 K, Mass density=281.9 kg/m3	348.13
504.46 K, Mass density=281.9 kg/m3	351.02
504.5 K, Mass density=329.2 kg/m3	325.72
504.56 K, Mass density=234.3 kg/m3	386.83
504.56 K, Mass density=281.9 kg/m3	346.57
504.59 K, Mass density=329.2 kg/m3	319.65
504.65 K, Mass density=234.3 kg/m3	381.48
504.65 K, Mass density=281.9 kg/m3	351.08
504.74 K, Mass density=234.3 kg/m3	386.35
504.74 K, Mass density=281.9 kg/m3	346.63
504.84 K, Mass density=234.3 kg/m3	392.36
504.84 K, Mass density=281.9 kg/m3	355.64
504.93 K, Mass density=281.9 kg/m3	355.64
504.97 K, Mass density=234.3 kg/m3	391.52
504.98 K, Mass density=329.2 kg/m3	328.36
505.02 K, Mass density=281.9 kg/m3	349.27
505.08 K, Mass density=329.2 kg/m3	326.92
505.12 K, Mass density=234.3 kg/m3	387.07
505.12 K, Mass density=281.9 kg/m3	354.2
505.21 K, Mass density=234.3 kg/m3	382.87
505.21 K, Mass density=281.9 kg/m3	355.76
505.21 K, Mass density=324.5 kg/m3	333.29
505.27 K, Mass density=329.2 kg/m3	325.96
505.3 K, Mass density=234.3 kg/m3	387.13
505.3 K, Mass density=324.5 kg/m3	339.78
505.37 K, Mass density=329.2 kg/m3	325.35
505.4 K, Mass density=234.3 kg/m3	387.13
505.49 K, Mass density=288.99 kg/m3	349.87
505.58 K, Mass density=288.99 kg/m3	350.77
505.58 K, Mass density=324.5 kg/m3	333.05
505.68 K, Mass density=288.99 kg/m3	343.14
505.68 K, Mass density=324.5 kg/m3	338.82
505.77 K, Mass density=288.99 kg/m3	350.47
505.77 K, Mass density=324.5 kg/m3	335.27
505.77 K, Mass density=343.1 kg/m3	323.67
505.86 K, Mass density=288.99 kg/m3	346.63
505.86 K, Mass density=324.5 kg/m3	337.13
505.86 K, Mass density=343.1 kg/m3	325.29
505.96 K, Mass density=288.99 kg/m3	350.53
505.96 K, Mass density=324.5 kg/m3	332.09
505.96 K, Mass density=343.1 kg/m3	323.97
506.05 K, Mass density=288.99 kg/m3	354.32
506.05 K, Mass density=324.5 kg/m3	336.65
506.05 K, Mass density=343.1 kg/m3	326.26
506.14 K, Mass density=288.99 kg/m3	350.59
506.14 K, Mass density=324.5 kg/m3	342.42
506.14 K, Mass density=343.1 kg/m3	328.36
506.24 K, Mass density=288.99 kg/m3	350.65
506.24 K, Mass density=324.5 kg/m3	340.02
506.24 K, Mass density=343.1 kg/m3	327.04
506.33 K, Mass density=274 kg/m3	361.17
506.33 K, Mass density=288.99 kg/m3	346.33
506.33 K, Mass density=324.5 kg/m3	336.41
506.33 K, Mass density=343.1 kg/m3	326.44
506.42 K, Mass density=274 kg/m3	362.97
506.42 K, Mass density=343.1 kg/m3	329.92
506.43 K, Mass density=329.2 kg/m3	328.06
506.52 K, Mass density=274 kg/m3	361.05
506.52 K, Mass density=288.99 kg/m3	351.92
506.52 K, Mass density=324.5 kg/m3	341.04
506.52 K, Mass density=343.1 kg/m3	328.3
506.53 K, Mass density=329.2 kg/m3	330.64
506.61 K, Mass density=274 kg/m3	365.62
506.61 K, Mass density=288.99 kg/m3	355.52
506.61 K, Mass density=343.1 kg/m3	329.98
506.62 K, Mass density=329.2 kg/m3	335.93
506.7 K, Mass density=288.99 kg/m3	357.63
506.7 K, Mass density=324.5 kg/m3	343.74
506.72 K, Mass density=329.2 kg/m3	332.69
506.8 K, Mass density=288.99 kg/m3	349.21
506.8 K, Mass density=343.1 kg/m3	329.08
506.82 K, Mass density=329.2 kg/m3	332.27
506.89 K, Mass density=288.99 kg/m3	354.98
